In publication doi:10.1101/2021.09.30.462449v1 (biorxiv, 2021):

Assays:
Assay in all cases: biochemical
Conditions in all cases: read-out: % inhibition mean (Lanthascreen)
ABL1 H396P = ABL1 H396P (Homo sapiens, UniProt P00519, H396P)
ALK R1275Q = ALK R1275Q (Homo sapiens, UniProt Q9UM73, R1275Q)
AMPK (A1/B2/G1) = AMPK (A1/B2/G1) (Homo sapiens, UniProt Q13131)
CAMKK1 (CAMKKA) = CAMKK1 (CAMKKA) (Homo sapiens, UniProt Q8N5S9)
CDC7/DBF4 = CDC7/DBF4 (Homo sapiens, UniProt O00311)
CDK2/cyclin E1 = CDK2/cyclin E1 (Homo sapiens, UniProt P24941)
CDK8/cyclin C = CDK8/cyclin C (Homo sapiens, UniProt P49336)
DMPK = DMPK (Homo sapiens, UniProt Q09013)
EIF2AK2 (PKR) = EIF2AK2 (PKR) (Homo sapiens, UniProt P19525)
EPHA3 = EPHA3 (Homo sapiens, UniProt P29320)
Sequence of EPHA3 (P29320 whole entry): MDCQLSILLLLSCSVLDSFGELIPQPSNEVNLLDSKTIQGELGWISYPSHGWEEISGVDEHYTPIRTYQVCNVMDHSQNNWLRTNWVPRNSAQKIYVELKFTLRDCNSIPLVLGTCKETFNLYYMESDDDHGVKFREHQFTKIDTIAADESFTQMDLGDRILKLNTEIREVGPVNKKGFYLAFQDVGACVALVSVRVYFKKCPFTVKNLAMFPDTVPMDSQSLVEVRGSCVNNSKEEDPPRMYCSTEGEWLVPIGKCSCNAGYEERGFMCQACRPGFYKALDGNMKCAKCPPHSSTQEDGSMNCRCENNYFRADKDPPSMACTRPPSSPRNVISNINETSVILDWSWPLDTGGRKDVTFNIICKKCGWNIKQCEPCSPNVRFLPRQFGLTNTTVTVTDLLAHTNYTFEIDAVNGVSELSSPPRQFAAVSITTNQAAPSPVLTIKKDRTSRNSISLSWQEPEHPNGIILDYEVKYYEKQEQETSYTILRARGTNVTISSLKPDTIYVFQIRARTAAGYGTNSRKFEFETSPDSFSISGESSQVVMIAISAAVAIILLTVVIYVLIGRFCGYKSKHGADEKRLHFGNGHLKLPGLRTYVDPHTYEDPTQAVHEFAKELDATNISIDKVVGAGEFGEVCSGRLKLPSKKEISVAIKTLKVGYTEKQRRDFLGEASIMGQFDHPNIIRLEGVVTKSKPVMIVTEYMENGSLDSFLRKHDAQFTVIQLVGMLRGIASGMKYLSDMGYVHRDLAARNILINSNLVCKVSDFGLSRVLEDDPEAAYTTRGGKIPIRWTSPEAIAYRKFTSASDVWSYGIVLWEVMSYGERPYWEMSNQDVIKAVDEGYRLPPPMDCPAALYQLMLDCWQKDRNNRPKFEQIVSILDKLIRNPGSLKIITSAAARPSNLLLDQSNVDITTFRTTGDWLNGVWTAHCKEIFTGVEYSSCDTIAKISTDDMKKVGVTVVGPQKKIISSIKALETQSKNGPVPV

FGFR1 V561M = FGFR1 V561M (Homo sapiens, UniProt P11362, V561M)
FGFR3 K650M = FGFR3 K650M (Homo sapiens, UniProt P22607, K650M)
KIT D820E = KIT D820E (Homo sapiens, UniProt P10721, D820E)
KIT T670E = KIT T670E (Homo sapiens, UniProt P10721, T670E)
LATS2 = LATS2 (Homo sapiens, UniProt Q9NRM7)
Sequence of LATS2 (Q9NRM7 whole entry): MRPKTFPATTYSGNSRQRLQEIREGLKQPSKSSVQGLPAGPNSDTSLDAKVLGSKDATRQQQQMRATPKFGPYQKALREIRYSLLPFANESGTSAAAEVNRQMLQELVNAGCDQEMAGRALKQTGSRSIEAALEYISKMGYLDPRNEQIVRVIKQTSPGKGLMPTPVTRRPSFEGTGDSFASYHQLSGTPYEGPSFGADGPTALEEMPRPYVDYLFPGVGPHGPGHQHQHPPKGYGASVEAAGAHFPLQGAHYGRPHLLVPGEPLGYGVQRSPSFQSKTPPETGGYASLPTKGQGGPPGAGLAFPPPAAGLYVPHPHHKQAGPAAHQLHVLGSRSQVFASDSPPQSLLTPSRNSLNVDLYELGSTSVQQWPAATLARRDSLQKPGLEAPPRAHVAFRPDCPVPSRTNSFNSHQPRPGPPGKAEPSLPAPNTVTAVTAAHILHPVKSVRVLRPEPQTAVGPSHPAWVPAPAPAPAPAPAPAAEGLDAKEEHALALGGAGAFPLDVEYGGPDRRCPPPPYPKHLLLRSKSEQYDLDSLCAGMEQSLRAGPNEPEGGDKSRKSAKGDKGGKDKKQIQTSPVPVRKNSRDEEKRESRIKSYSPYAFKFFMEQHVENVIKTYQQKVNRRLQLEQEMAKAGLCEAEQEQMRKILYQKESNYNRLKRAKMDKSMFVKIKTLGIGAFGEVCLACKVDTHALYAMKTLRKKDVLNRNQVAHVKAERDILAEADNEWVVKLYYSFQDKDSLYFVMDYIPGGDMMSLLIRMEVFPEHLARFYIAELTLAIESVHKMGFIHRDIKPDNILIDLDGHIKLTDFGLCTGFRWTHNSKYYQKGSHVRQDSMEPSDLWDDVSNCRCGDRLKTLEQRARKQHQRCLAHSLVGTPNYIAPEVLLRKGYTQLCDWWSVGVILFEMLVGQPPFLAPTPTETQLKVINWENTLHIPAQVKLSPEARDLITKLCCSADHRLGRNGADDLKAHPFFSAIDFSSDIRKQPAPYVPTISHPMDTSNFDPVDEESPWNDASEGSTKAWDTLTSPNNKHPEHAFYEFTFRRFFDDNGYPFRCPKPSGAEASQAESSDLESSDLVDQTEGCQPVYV

MAP3K10 (MLK2) = MAP3K10 (MLK2) (Homo sapiens, UniProt Q02779)
MAPK8 (JNK1) = MAPK8 (JNK1) (Homo sapiens, UniProt P45983)
MASTL = MASTL (Homo sapiens, UniProt Q96GX5)
MERTK (cMER) A708S = MERTK (cMER) A708S (Homo sapiens, UniProt Q12866, A708S)
Sequence of MERTK (cMER) A708S (Q12866 whole entry A708S): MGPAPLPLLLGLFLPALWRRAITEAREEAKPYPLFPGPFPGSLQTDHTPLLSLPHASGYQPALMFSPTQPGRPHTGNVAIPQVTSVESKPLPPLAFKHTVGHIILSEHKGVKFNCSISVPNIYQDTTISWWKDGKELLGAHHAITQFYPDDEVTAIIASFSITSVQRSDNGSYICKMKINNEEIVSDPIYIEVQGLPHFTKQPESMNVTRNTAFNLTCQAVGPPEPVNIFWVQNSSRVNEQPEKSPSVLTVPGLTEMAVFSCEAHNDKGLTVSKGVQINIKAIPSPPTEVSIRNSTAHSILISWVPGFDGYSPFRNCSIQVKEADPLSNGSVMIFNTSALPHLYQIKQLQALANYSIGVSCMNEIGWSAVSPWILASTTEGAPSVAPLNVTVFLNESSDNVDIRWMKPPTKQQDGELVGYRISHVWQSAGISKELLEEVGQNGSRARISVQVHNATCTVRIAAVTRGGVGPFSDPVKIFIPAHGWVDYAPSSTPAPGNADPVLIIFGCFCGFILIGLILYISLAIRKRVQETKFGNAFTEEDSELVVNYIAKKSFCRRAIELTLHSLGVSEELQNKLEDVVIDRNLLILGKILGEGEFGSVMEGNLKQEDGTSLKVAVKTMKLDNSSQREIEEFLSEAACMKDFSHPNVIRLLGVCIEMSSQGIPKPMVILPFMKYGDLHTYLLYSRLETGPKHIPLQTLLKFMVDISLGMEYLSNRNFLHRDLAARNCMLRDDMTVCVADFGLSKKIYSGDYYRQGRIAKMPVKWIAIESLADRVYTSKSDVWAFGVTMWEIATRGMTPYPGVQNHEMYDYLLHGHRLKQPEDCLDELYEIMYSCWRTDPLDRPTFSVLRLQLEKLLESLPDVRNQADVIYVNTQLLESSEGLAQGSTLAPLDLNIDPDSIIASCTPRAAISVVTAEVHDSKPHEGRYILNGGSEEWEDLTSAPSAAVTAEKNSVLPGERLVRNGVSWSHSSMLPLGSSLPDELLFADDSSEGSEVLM

MKNK2 (MNK2) = MKNK2 (MNK2) (Homo sapiens, UniProt Q9HBH9)
Sequence of MKNK2 (MNK2) (Q9HBH9 whole entry): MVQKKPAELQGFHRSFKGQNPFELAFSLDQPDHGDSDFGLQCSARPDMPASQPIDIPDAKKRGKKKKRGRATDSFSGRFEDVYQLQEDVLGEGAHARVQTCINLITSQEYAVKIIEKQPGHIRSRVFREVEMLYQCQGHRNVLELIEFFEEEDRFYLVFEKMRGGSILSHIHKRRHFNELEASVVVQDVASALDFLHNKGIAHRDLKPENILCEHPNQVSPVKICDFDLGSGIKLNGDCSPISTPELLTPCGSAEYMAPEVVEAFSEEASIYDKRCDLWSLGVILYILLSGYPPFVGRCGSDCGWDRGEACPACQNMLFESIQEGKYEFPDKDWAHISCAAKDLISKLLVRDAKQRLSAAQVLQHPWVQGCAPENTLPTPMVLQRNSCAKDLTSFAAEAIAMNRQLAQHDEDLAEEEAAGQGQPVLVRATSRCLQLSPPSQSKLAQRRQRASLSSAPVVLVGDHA

MYO3A (MYO3 alpha) = MYO3A (MYO3 alpha) (Homo sapiens, UniProt Q8NEV4)
SLK = SLK (Homo sapiens, UniProt Q9H2G2)
STK32B (YANK2) = STK32B (YANK2) (Homo sapiens, UniProt Q9NY57)
STK39 (STLK3) = STK39 (STLK3) (Homo sapiens, UniProt Q9UEW8)
TAOK1 = TAOK1 (Homo sapiens, UniProt Q7L7X3)
TTK = TTK (Homo sapiens, UniProt P33981)
ULK2 = ULK2 (Homo sapiens, UniProt Q8IYT8)
VRK2 = VRK2 (Homo sapiens, UniProt Q86Y07)

Sequence of AMPK (A1/B2/G1) (Q13131 whole entry): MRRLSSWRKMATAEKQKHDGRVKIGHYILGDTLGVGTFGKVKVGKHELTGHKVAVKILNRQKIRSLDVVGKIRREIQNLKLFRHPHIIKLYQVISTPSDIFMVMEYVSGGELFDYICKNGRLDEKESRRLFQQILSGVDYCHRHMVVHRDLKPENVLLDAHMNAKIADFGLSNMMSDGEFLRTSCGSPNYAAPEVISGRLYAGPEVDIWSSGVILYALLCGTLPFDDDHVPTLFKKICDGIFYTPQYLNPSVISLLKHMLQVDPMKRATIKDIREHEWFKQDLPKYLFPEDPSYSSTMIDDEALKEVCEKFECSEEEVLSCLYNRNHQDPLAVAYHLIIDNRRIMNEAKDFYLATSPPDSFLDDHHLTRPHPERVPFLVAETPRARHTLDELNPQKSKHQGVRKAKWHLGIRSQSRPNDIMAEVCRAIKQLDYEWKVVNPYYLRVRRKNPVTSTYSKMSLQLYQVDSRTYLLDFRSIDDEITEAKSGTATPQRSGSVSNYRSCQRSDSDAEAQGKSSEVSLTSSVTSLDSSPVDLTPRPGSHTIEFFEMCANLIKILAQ
Sequence of AMPK (A1/B2/G1) (O43741 whole entry partner): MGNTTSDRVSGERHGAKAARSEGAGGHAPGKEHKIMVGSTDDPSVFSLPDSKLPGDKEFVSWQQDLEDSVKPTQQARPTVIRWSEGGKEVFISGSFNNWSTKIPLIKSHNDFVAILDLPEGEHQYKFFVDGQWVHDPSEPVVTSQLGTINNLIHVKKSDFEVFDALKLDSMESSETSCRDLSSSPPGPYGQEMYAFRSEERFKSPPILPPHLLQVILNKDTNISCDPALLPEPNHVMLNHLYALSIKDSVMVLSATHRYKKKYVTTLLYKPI
Sequence of AMPK (A1/B2/G1) (P54619 whole entry partner): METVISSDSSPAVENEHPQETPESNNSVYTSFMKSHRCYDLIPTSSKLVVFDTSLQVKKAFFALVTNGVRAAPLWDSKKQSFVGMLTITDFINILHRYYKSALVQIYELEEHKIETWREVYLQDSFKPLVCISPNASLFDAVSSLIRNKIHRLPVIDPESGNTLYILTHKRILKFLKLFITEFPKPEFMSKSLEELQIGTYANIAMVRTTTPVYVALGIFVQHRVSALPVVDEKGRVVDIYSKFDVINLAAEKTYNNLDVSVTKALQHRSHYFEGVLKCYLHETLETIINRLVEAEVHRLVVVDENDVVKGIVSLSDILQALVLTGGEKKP

For COc1ccc2nc3cc(Cl)ccc3c(Nc3cc(CN4CCCC4)c(O)c(CN4CCCC4)c3)c2n1 [Pyronaridine, 4-[(7-Chloro-2-methoxybenzo[b][1,5]naphthyridin-10-yl)amino]-2,6-bis(1-pyrrolidinylmethyl)phenol phosphate (1:4)], the inhibition at 1 µM (ABL1 H396P) was 7%, the inhibition at 1 µM (ALK R1275Q) was 6% and the inhibition at 1 µM (AMPK (A1/B2/G1)) was -2%. It also gave an inhibition at 1 µM (CAMKK1 (CAMKKA)) of 15%, an inhibition at 1 µM (CDC7/DBF4) of -6% and an inhibition at 1 µM (CDK2/cyclin E1) of 0%. For the same compound, the inhibition at 1 µM (CDK8/cyclin C) was 3%, the inhibition at 1 µM (DMPK) was 4% and the inhibition at 1 µM (EIF2AK2 (PKR)) was 4%. The inhibition at 1 µM (EPHA3) was 11%, the inhibition at 1 µM (FGFR1 V561M) was 5% and the inhibition at 1 µM (FGFR3 K650M) was -4%. It also gave an inhibition at 1 µM (KIT D820E) of -4%, an inhibition at 1 µM (KIT T670E) of 1% and an inhibition at 1 µM (LATS2) of -4%. For the same compound, the inhibition at 1 µM (MAP3K10 (MLK2)) was 0%, the inhibition at 1 µM (MAPK8 (JNK1)) was 3% and the inhibition at 1 µM (MASTL) was 3%. The inhibition at 1 µM (MERTK (cMER) A708S) was 0%, the inhibition at 1 µM (MKNK2 (MNK2)) was 2% and the inhibition at 1 µM (MYO3A (MYO3 alpha)) was -6%. For the same compound, the inhibition at 1 µM (SLK) was -1%, the inhibition at 1 µM (STK32B (YANK2)) was 0% and the inhibition at 1 µM (STK39 (STLK3)) was -19%. The inhibition at 1 µM (TAOK1) was -4%, the inhibition at 1 µM (TTK) was 4% and the inhibition at 1 µM (ULK2) was 2%. For the same compound, the inhibition at 1 µM (VRK2) was -4%.
